Reference: the kinase profiling compilation of Christmann-Franck et al. (2016)

What was measured:
Test in all cases: Caliper, Mobility shift assay off-chip
STK4 (human) = STK4 (human) (UniProt Q13043)
SGK2 (human) = SGK2 (human) (UniProt Q9HBY8)
CSNK2A1 (human) = CSNK2A1 (human) (UniProt P68400)
LTK (human) = LTK (human) (UniProt P29376); details: compound 0.2 µM
SRPK3 (human) = SRPK3 (human) (UniProt Q9UPE1)
CDK7 (human) = CDK7 (human) (UniProt P50613)
ALK EML4 (human) = ALK EML4 (human) (UniProt Q9HC35+Q9UM73)
AURKC (human) = AURKC (human) (UniProt Q9UQB9)
IRAK4 (human) = IRAK4 (human) (UniProt Q9NWZ3)
CLK2 (human) = CLK2 (human) (UniProt P49760)
ROS1 (human) = ROS1 (human) (UniProt P08922)
MAPK11 (human) = MAPK11 (human) (UniProt Q15759)
EEF2K (human) = EEF2K (human) (UniProt O00418)
PRKCG (human) = PRKCG (human) (UniProt P05129)
STK38L (human) = STK38L (human) (UniProt Q9Y2H1)
PDGFRA (human) = PDGFRA (human) (UniProt P16234); details: compound 0.2 µM
CDC42BPB (human) = CDC42BPB (human) (UniProt Q9Y5S2)
EPHA4 (human) = EPHA4 (human) (UniProt P54764)
CDC7 (human) = CDC7 (human) (UniProt O00311)
NEK1 (human) = NEK1 (human) (UniProt Q96PY6)
DDR2 (human) = DDR2 (human) (UniProt Q16832)
MARK4 (human) = MARK4 (human) (UniProt Q96L34)
HIPK1 (human) = HIPK1 (human) (UniProt Q86Z02)
TNK1 (human) = TNK1 (human) (UniProt Q13470)
ABL2 (human) = ABL2 (human) (UniProt P42684)
PRKCZ (human) = PRKCZ (human) (UniProt Q05513)
FRK (human) = FRK (human) (UniProt P42685); details: compound 0.2 µM
PHKG2 (human) = PHKG2 (human) (UniProt P15735)
CDK3 (human) = CDK3 (human) (UniProt Q00526)
MELK (human) = MELK (human) (UniProt Q14680)

CDK7 (human), sequence (P50613 whole entry, looked up): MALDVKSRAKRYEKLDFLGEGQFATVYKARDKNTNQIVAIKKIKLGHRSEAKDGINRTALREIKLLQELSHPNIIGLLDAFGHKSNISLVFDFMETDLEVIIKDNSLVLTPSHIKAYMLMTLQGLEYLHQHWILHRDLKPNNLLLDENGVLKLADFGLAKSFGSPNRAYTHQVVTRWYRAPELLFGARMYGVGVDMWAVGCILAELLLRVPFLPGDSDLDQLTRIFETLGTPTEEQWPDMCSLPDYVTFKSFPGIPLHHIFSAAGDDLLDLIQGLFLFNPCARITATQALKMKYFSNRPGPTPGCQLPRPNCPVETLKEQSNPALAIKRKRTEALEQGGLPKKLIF
ROS1 (human), sequence (P08922 whole entry, looked up): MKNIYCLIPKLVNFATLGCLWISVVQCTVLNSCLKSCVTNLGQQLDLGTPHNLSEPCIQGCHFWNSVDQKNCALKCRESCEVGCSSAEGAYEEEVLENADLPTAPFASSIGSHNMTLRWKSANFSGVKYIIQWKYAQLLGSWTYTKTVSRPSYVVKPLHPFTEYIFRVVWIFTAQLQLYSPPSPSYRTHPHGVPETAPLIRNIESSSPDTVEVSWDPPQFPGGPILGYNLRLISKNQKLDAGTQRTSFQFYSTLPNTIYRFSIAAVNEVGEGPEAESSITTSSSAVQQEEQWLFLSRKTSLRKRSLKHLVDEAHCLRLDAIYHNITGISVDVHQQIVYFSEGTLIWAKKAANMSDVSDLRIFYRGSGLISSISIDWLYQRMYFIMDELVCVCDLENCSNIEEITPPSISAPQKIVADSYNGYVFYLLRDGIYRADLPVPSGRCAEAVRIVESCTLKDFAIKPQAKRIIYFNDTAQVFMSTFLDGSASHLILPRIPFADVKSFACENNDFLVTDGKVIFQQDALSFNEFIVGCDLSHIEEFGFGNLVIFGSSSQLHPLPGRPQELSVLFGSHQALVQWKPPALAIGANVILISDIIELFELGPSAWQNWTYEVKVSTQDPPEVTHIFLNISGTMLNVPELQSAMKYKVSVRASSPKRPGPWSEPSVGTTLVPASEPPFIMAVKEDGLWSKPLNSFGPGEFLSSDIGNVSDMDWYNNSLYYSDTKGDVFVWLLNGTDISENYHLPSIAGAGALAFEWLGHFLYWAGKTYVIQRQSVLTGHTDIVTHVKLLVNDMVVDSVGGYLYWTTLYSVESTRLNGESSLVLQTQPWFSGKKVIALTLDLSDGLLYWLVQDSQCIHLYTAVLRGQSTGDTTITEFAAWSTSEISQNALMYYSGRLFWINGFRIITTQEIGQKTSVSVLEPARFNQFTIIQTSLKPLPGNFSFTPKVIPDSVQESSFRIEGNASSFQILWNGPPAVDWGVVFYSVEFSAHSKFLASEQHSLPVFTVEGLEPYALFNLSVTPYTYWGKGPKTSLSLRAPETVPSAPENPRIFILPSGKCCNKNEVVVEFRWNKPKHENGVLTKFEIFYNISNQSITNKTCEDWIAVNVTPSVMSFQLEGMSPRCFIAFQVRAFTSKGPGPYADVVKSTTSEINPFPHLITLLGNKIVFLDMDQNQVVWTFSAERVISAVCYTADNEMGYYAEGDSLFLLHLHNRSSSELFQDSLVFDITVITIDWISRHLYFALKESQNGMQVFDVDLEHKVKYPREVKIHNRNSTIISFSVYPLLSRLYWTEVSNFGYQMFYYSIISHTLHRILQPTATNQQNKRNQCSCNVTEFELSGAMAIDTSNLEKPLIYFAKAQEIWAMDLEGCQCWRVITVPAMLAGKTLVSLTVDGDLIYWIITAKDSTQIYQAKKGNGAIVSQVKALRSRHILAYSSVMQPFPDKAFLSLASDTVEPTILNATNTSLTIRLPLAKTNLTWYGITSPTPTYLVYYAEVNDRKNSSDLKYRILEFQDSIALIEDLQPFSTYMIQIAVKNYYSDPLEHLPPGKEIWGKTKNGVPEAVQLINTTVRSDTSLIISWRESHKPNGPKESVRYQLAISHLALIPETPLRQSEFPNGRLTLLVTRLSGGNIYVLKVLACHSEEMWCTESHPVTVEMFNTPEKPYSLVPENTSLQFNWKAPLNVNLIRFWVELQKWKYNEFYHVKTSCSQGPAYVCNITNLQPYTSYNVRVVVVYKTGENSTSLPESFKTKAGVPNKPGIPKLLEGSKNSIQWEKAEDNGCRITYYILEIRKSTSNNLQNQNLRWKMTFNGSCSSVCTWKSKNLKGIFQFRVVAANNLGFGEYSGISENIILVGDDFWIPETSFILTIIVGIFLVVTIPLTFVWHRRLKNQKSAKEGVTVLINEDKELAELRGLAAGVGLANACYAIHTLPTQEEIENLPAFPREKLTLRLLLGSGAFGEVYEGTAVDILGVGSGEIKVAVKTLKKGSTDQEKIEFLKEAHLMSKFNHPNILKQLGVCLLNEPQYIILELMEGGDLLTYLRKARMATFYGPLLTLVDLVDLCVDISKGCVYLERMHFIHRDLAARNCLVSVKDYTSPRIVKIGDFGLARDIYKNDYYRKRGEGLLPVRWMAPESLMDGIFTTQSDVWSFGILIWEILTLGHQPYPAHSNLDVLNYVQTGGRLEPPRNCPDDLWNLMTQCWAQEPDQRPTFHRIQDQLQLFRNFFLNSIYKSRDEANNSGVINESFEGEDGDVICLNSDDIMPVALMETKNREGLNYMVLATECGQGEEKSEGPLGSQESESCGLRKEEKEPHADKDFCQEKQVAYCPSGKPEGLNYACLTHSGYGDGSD
STK38L (human), sequence (Q9Y2H1 whole entry, looked up): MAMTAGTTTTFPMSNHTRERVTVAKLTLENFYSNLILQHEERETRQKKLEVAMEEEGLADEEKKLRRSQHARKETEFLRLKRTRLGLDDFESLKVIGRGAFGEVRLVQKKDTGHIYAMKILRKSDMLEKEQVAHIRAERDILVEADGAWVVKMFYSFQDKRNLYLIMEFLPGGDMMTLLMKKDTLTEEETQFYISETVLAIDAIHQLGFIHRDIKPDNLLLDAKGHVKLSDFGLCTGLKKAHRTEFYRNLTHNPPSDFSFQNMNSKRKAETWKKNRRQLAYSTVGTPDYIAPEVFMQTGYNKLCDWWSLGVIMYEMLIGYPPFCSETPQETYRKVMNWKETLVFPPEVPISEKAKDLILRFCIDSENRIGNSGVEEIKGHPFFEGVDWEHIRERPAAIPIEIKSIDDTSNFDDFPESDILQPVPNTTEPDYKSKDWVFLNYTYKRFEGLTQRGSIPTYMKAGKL
CDK3 (human), sequence (Q00526 whole entry, looked up): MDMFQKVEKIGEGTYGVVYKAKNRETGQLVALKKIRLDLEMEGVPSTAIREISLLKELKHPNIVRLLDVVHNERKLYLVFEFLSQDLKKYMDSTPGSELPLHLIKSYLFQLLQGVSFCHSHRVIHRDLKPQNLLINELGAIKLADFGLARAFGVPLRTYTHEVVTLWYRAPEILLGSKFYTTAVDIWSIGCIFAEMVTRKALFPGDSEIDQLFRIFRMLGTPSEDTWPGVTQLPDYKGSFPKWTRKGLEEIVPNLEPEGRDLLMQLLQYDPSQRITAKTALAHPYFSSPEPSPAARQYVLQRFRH
SRPK3 (human), sequence (Q9UPE1 whole entry, looked up): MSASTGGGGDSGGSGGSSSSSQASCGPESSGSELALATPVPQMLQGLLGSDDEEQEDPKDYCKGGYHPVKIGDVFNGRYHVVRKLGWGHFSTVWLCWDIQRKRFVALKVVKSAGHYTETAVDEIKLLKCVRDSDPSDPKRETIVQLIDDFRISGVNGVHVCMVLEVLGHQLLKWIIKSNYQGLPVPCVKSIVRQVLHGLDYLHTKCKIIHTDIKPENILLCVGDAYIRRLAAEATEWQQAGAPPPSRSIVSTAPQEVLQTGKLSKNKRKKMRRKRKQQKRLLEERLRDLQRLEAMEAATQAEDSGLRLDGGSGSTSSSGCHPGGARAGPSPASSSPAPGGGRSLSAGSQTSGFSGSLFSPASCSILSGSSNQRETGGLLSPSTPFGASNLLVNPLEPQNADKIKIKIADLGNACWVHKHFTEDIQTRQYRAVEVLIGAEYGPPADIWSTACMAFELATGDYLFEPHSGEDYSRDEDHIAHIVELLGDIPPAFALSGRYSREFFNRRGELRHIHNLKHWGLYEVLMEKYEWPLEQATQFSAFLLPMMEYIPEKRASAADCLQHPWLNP
SGK2 (human), sequence (Q9HBY8 whole entry, looked up): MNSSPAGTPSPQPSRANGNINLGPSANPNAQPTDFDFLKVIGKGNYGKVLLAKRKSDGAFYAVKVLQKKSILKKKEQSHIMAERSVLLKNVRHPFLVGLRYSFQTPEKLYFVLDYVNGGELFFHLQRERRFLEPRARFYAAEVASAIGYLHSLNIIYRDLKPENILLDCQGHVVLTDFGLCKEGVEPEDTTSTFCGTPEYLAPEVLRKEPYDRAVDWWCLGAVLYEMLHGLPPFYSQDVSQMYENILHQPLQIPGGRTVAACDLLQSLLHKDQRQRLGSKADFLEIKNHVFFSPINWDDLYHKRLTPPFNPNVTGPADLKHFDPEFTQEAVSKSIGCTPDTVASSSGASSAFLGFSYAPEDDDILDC
STK4 (human), sequence (Q13043 whole entry, looked up): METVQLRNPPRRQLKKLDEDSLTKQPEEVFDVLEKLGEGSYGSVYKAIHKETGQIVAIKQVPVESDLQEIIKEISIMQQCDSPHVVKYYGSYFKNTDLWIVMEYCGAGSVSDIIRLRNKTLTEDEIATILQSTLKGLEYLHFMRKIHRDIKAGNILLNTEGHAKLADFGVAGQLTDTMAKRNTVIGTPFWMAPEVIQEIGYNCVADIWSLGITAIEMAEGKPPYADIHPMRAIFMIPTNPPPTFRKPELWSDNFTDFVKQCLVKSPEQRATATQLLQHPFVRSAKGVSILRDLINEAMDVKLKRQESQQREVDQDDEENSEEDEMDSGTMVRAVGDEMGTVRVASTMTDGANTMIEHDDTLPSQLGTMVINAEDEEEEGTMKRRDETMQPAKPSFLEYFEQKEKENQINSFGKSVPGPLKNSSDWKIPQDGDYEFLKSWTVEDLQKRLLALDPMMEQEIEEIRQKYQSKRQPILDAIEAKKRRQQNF

Q: For `CCN(CC)CCNC(=O)c1c(C)[nH]c(/C=C2\C(=O)Nc3ccc(F)cc32)c1C`, which inhibition (STK4 (human); compound 0.2 µM) is on record?
A: 92.8%

Q: What about the inhibition (STK4 (human); compound 4.0 µM) of the same molecule?
A: 103%

Q: And the inhibition (SGK2 (human); compound 0.2 µM)?
A: 5.5%

Q: And the inhibition (SGK2 (human); compound 4.0 µM)?
A: 57.6%

Q: What about the inhibition (CSNK2A1 (human); compound 0.2 µM) of the same molecule?
A: -0.4%

Q: What about the inhibition (CSNK2A1 (human); compound 4.0 µM) of the same molecule?
A: 19.9%

Q: What about the inhibition (LTK (human)) of the same molecule?
A: 69%

Q: And the inhibition (SRPK3 (human); compound 0.2 µM)?
A: 1.1%

Q: And the inhibition (SRPK3 (human); compound 4.0 µM)?
A: 5.1%

Q: What about the inhibition (CDK7 (human); compound 0.2 µM) of the same molecule?
A: 87.6%

Q: What about the inhibition (CDK7 (human); compound 4.0 µM) of the same molecule?
A: 98.8%

Q: What about the inhibition (ALK EML4 (human); compound 0.2 µM) of the same molecule?
A: 70.5%

Q: And the inhibition (ALK EML4 (human); compound 4.0 µM)?
A: 100%

Q: And the inhibition (AURKC (human); compound 0.2 µM)?
A: 23.2%

Q: And the inhibition (AURKC (human); compound 4.0 µM)?
A: 87.1%

Q: And the inhibition (IRAK4 (human); compound 0.2 µM)?
A: 35.6%

Q: And the inhibition (IRAK4 (human); compound 4.0 µM)?
A: 90.4%

Q: And the inhibition (CLK2 (human); compound 0.2 µM)?
A: 78.3%

Q: What about the inhibition (CLK2 (human); compound 4.0 µM) of the same molecule?
A: 97.2%

Q: What about the inhibition (ROS1 (human); compound 0.2 µM) of the same molecule?
A: 18.4%

Q: And the inhibition (ROS1 (human); compound 4.0 µM)?
A: 81.4%

Q: What about the inhibition (MAPK11 (human); compound 0.2 µM) of the same molecule?
A: -1.4%

Q: And the inhibition (MAPK11 (human); compound 4.0 µM)?
A: -3.1%

Q: What about the inhibition (EEF2K (human); compound 0.2 µM) of the same molecule?
A: 2.7%

Q: And the inhibition (EEF2K (human); compound 4.0 µM)?
A: 4%

Q: What about the inhibition (PRKCG (human); compound 0.2 µM) of the same molecule?
A: 0.1%

Q: And the inhibition (PRKCG (human); compound 4.0 µM)?
A: 38.9%

Q: And the inhibition (STK38L (human); compound 0.2 µM)?
A: 6.1%

Q: And the inhibition (STK38L (human); compound 4.0 µM)?
A: 32.7%

Q: What about the inhibition (PDGFRA (human)) of the same molecule?
A: 100%

Q: What about the inhibition (CDC42BPB (human); compound 0.2 µM) of the same molecule?
A: -0.5%

Q: What about the inhibition (CDC42BPB (human); compound 4.0 µM) of the same molecule?
A: 14.2%

Q: And the inhibition (EPHA4 (human); compound 0.2 µM)?
A: 2.1%

Q: What about the inhibition (EPHA4 (human); compound 4.0 µM) of the same molecule?
A: 40.8%

Q: And the inhibition (CDC7 (human); compound 0.2 µM)?
A: 0.9%

Q: What about the inhibition (CDC7 (human); compound 4.0 µM) of the same molecule?
A: 4.9%

Q: And the inhibition (NEK1 (human); compound 0.2 µM)?
A: -2.4%

Q: What about the inhibition (NEK1 (human); compound 4.0 µM) of the same molecule?
A: -8.5%

Q: What about the inhibition (DDR2 (human); compound 0.2 µM) of the same molecule?
A: 55.8%

Q: And the inhibition (DDR2 (human); compound 4.0 µM)?
A: 98%

Q: And the inhibition (MARK4 (human); compound 0.2 µM)?
A: 76.3%

Q: And the inhibition (MARK4 (human); compound 4.0 µM)?
A: 100%

Q: What about the inhibition (HIPK1 (human); compound 0.2 µM) of the same molecule?
A: 51.3%

Q: What about the inhibition (HIPK1 (human); compound 4.0 µM) of the same molecule?
A: 94.4%

Q: And the inhibition (TNK1 (human); compound 0.2 µM)?
A: 32.1%

Q: What about the inhibition (TNK1 (human); compound 4.0 µM) of the same molecule?
A: 88.4%

Q: What about the inhibition (ABL2 (human); compound 0.2 µM) of the same molecule?
A: 13.7%

Q: And the inhibition (ABL2 (human); compound 4.0 µM)?
A: 66.6%

Q: What about the inhibition (PRKCZ (human); compound 0.2 µM) of the same molecule?
A: -1.5%

Q: And the inhibition (PRKCZ (human); compound 4.0 µM)?
A: 13.5%

Q: And the inhibition (FRK (human))?
A: 29.7%

Q: What about the inhibition (PHKG2 (human); compound 0.2 µM) of the same molecule?
A: 85.2%

Q: And the inhibition (PHKG2 (human); compound 4.0 µM)?
A: 99%

Q: What about the inhibition (CDK3 (human); compound 0.2 µM) of the same molecule?
A: 0.3%

Q: And the inhibition (CDK3 (human); compound 4.0 µM)?
A: 36.6%

Q: And the inhibition (MELK (human); compound 0.2 µM)?
A: 80%

Q: And the inhibition (MELK (human); compound 4.0 µM)?
A: 99.2%
